The source of these data is publication PMC2765569 (Biochemistry, 2009).

The target in experiment [1] is FTase (wild-type protein farnesyltransferase) (Rattus norvegicus, UniProt Q02293+Q04631). Description: Single-turnover. In kind it is biochemical. The following applies: 800 nM FTase, 200 nM FPP, 25 μM peptide, 5 μM MDCC-PBP, 34 units mL^−1 PPiase, 50 mM HEPPSO pH 7.8, 5 mM TCEP, 5 mM MgCl2, 25 °C; for Single turnover rate constant kSTO, X=S: dansyl-GCVa2S panel.
Experiment [2] concerns the target FTase (Rattus norvegicus, UniProt Q02293+Q04631). Kind of experiment: Radioactive assay of FTase-catalyzed farnesylation. The following applies: data not shown, farnesylated slowly. In kind it is biochemical.

FTase, sequence (Q02293 whole entry, one chain of several): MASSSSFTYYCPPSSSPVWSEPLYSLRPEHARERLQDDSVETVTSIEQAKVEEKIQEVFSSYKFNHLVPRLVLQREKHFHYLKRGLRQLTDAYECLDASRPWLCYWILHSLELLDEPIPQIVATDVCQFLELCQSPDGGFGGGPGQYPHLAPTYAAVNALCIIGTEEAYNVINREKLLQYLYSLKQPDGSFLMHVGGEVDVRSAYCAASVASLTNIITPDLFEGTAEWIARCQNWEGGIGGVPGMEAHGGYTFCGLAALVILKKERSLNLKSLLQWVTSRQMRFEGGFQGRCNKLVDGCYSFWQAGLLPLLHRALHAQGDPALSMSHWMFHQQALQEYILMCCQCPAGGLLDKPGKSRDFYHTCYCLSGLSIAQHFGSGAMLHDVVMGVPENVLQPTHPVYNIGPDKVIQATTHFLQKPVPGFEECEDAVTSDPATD

dansyl-GCVGM: the “Single turnover rate constant kSTO, X=M” value in experiment [1] (dansyl-GCVa2M panel) came out at 0.26 ± 0.01 s⁻¹.
dansyl-GCVGS: the “Single turnover rate constant kSTO, X=S” value in experiment [1] is 0.092 ± 0.004 s⁻¹.
The same measure, in the same setting: with dansyl-GCVLS the figure was 3.8 ± 0.5 s⁻¹.
dansyl-GCVRS: the “apparent value for kcat/KM” value in experiment [2] was under 1000 M⁻¹ s⁻¹.
